ChEMBL document CHEMBL6074637, “Sidechain structure-activity relationships of cyclobutane-based small molecule αvβ3 antagonists” (RSC Med Chem, 2024)

Experiments:
SK-MEL-2 = assay: Cytotoxicity against alphavbeta3-expressing human SK-MEL-2 cells assessed as reduction in cell viability measured after 96 hrs by MTT assay; format: toxicity, cell-based; conditions: sk-mel-2, 96 h
[1] = Cytotoxicity against alphavbeta3-expressing human U-87 MG cells assessed as reduction in cell viability measured after 96 hrs by MTT assay; format: toxicity, cell-based; conditions: u-87mg atcc
[2] = target: T1, Integrin alpha-V/beta-3 (Homo sapiens) (UniProt P05106+P06756); assay: Antagonist activity at alphavbeta3 integrin-mediated human SK-MEL-2 cell adhesion to fibronectin at 50 uM incubated with cells for 4 hrs followed by incubation with fibronectin in humidified chamber for 1 hr followed by incubation for overnight at 37 degC by MTT assay; format: cell-based
[3] = Toxicity in C57BL/6 immunocompetent mouse assessed as body weight upto 300 mg/kg, ip administered daily for 4 days; format: organism-based; conditions: in vivo, 96 h, time 4 day
[4] = target: T1, Integrin alpha-V/beta-3 (Homo sapiens); assay: Antagonist activity at alphavbeta3 integrin-mediated human SK-MEL-2 cell adhesion to fibronectin at 5 uM incubated with cells for 4 hrs followed by incubation with fibronectin in humidified chamber for 1 hr followed by incubation for overnight at 37 degC by MTT assay; format: cell-based; conditions: filed as antagonist

Row | SMILES | Activity (SK-MEL-2) | Activity [1] | inhibition [2] | Activity [3] | inhibition [4] [%]
1 | Cc1cc(C)c(S(=O)(=O)N[C@H]2CC(=O)N([C@H]3C[C@@H](CCc4ccc5c(n4)NCCC5)C3)C2=O)c(C)c1 | Toxic |  |  |  | 
2 | COC(=O)[C@H](CC(=O)N[C@H]1C[C@@H](CCc2ccc3cccnc3n2)C1)NS(=O)(=O)c1c(C)cc(C)cc1C | Toxic | Toxic |  |  | 
3 | COC(=O)[C@H](CCNC(=O)[C@H]1C[C@@H](CCc2ccc3c(n2)NCCC3)C1)NS(=O)(=O)c1ccccc1 | Toxic |  | Not determined; Greater Than 75% Inhibition In Initial Trial Experiment, Not Tested Further At This Concentration |  | 
4 | O=C(O)C[C@H](NS(=O)(=O)c1ccccc1)C(=O)N[C@H]1C[C@@H](CCc2ccc3c(n2)NCCC3)C1 | Toxic |  | Not determined; Greater Than 75% Inhibition In Initial Trial Experiment, Not Tested Further At This Concentration |  | 
5 | COC(=O)[C@H](CCNC(=O)[C@H]1C[C@@H](Cc2ccc3c(n2)NCCC3)C1)NS(=O)(=O)c1ccccc1 | Toxic | Toxic | Not determined; Greater Than 75% Inhibition In Initial Trial Experiment, Not Tested Further At This Concentration |  | 
6 | COC(=O)[C@H](CCNC(=O)[C@H]1C[C@@H](CCc2ccc3cccnc3n2)C1)NS(=O)(=O)c1ccccc1 | Toxic |  | Not determined; Greater Than 75% Inhibition In Initial Trial Experiment, Not Tested Further At This Concentration |  | 
7 | Cc1cc(C)c(S(=O)(=O)N[C@H]2CC(=O)N([C@H]3C[C@@H](CCc4ccc5cccnc5n4)C3)C2=O)c(C)c1 | Toxic |  |  |  | 
8 | O=C1C[C@H](NS(=O)(=O)c2ccccc2)C(=O)N1[C@H]1C[C@@H](CCc2ccc3c(n2)NCCC3)C1 | Toxic | Toxic |  |  | 
9 | COC(=O)[C@H](CC(=O)N[C@H]1C[C@@H](CCc2ccc3cccnc3n2)C1)NS(=O)(=O)c1ccccc1 | Toxic | Toxic |  |  | 
10 | O=C1C[C@H](NS(=O)(=O)c2ccccc2)C(=O)N1[C@H]1C[C@@H](CCc2ccc3cccnc3n2)C1 | Toxic | Toxic |  |  | 
11 | COC(=O)[C@H](CCNC(=O)[C@H]1C[C@@H](Cc2ccc3cccnc3n2)C1)NS(=O)(=O)c1ccccc1 | Toxic | Toxic |  |  | 
12 | O=C(O)C[C@H](NS(=O)(=O)c1ccccc1)C(=O)N[C@H]1C[C@@H](CCc2ccc3cccnc3n2)C1 | Toxic |  |  |  | 
13 | COC(=O)[C@H](CC(=O)N[C@H]1C[C@@H](CCc2ccc3c(n2)NCCC3)C1)NS(=O)(=O)c1c(C)cc(C)cc1C | Toxic | Toxic |  |  | 
14 | CNc1cccc(CC[C@H]2C[C@@H](C(=O)NC[C@H](NS(=O)(=O)c3c(C)cc(C)cc3C)C(=O)OC)C2)n1 | Toxic | Toxic |  | Non-toxic | 
15 | CC(C)(C)OC(=O)C[C@H](NS(=O)(=O)c1ccccc1)C(=O)N[C@H]1C[C@@H](CCc2ccc3c(n2)NCCC3)C1 | Toxic |  |  |  | 
16 | COC(=O)[C@H](CC(=O)N[C@H]1C[C@@H](CCc2ccc3c(n2)NCCC3)C1)NS(=O)(=O)c1ccccc1 | Toxic | Toxic |  |  | 
17 | COC(=O)[C@H](CNC(=O)[C@H]1C[C@@H](CCc2ccc3c(n2)NCCC3)C1)NS(=O)(=O)c1ccccc1 |  |  |  |  | 59.5
18 | COC(=O)[C@H](CCNC(=O)[C@H]1C[C@@H](Cc2ccc3c(n2)NCCC3)C1)NS(=O)(=O)c1c(C)cc(C)cc1C | Toxic | Toxic | Not determined; Greater Than 75% Inhibition In Initial Trial Experiment, Not Tested Further At This Concentration |  | 
19 | COC(=O)[C@H](CCNC(=O)[C@H]1C[C@@H](CCc2ccc3c(n2)NCCC3)C1)NS(=O)(=O)c1c(C)cc(C)cc1C | Toxic | Toxic | Not determined; Greater Than 75% Inhibition In Initial Trial Experiment, Not Tested Further At This Concentration |  | 
20 | CC(C)(C)OC(=O)C[C@H](NS(=O)(=O)c1ccccc1)C(=O)N[C@H]1C[C@@H](CCc2ccc3cccnc3n2)C1 | Toxic |  | Not determined; Greater Than 75% Inhibition In Initial Trial Experiment, Not Tested Further At This Concentration |  | 
21 | COC(=O)[C@H](CCNC(=O)[C@H]1C[C@@H](Cc2ccc3cccnc3n2)C1)NS(=O)(=O)c1c(C)cc(C)cc1C |  | Toxic |  |  | 
22 | CNc1cccc(CC[C@H]2C[C@@H](C(=O)NC[C@H](NS(=O)(=O)c3ccccc3)C(=O)OC)C2)n1 | Toxic | Toxic | Not determined; Greater Than 75% Inhibition In Initial Trial Experiment, Not Tested Further At This Concentration |  | 
23 | COC(=O)[C@H](CCNC(=O)[C@H]1C[C@@H](CCc2ccc3cccnc3n2)C1)NS(=O)(=O)c1c(C)cc(C)cc1C | Toxic | Toxic | Not determined; Greater Than 75% Inhibition In Initial Trial Experiment, Not Tested Further At This Concentration |  | 
